Here are results for 12 compounds from ChEMBL document CHEMBL2028040, “Malaria Box”.

One may read the IC50 as the midpoint of a concentration-inhibition curve. Read a low IC50 as greater potency. Usually inhibition stands for the percentage by which the read-out fell short of the control. A high value points to strong suppression. One may read the EC50 as the concentration giving half of the maximal effect. A lower EC50 goes with greater potency.

Where only a bound is given, the exact number is not on record here.

The subject of one data set is Leishmania infantum. Put plainly: MMV: Inhibition of Leishmania infantum (MHOM/MA/BE/67) in vitro. In kind it is functional, organism-based.
Data set [1] deals with Trypanosoma brucei brucei. Put plainly: MMV: Inhibition of Trypanosoma brucei brucei (Squib 427) (HAT in vitro). In kind it is functional, organism-based.
The test system of the next data set is Trypanosoma cruzi. Put plainly: MMV: Inhibition of Trypanosoma cruzi (Tulahuen C4 LacZ) (Chagas in vitro). In kind it is functional, organism-based.
In data set [2] the test system is Plasmodium falciparum. Kind of data set: MMV: Inhibition of Plasmodium falciparum 3D7 at 5uM compound concentration. In kind it is functional.
Data set [3] has as its system Trypanosoma brucei rhodesiense. Put plainly: MMV: Inhibition of Trypanosoma brucei rhodesiense (STIB 900) (HAT in vitro). In kind it is functional, organism-based.
Data set [4] can be described thus: MMV: Cytotoxicity against human fibroblasts (MRC-5) cells. The note with it: MRC-5 cells (human fibroblasts).
Data set [5] concerns Plasmodium falciparum. Kind of data set: MMV: Inhibition of Plasmodium falciparum 3D7 (EC50). In kind it is functional, organism-based.

As to `Cc1ccc(-c2cc(C(=O)Nc3ccc(S(=O)(=O)N4CCCCC4)cc3)[nH]n2)c(O)c1`, the IC50 (in the data set with Leishmania infantum; in data set [1]; with Trypanosoma cruzi; in data set [3]; in data set [4]) was > 32 µM each time. The inhibition at 5 µM in the data set with Plasmodium falciparum [2] came out at 94%. This compound also registered an EC50 with Plasmodium falciparum [5] of 0.535 µM.
Turning to `COc1cc(C(=O)Nc2ccc(-c3nc4ccccc4[nH]3)cc2)cc(OC)c1OC`, the IC50 is > 32 µM with Leishmania infantum; 3.37 µM in data set [1]; > 32 µM in the data set with Trypanosoma cruzi; 2.54 µM in data set [3]; > 32 µM in data set [4]. In the data set with Plasmodium falciparum [2], this compound came in with an inhibition at 5 µM of 95%. The compound further registered an EC50 in the data set with Plasmodium falciparum [5] of 1.22 µM.
`c1ccc(-c2ccc(-c3nc4ccccc4[nH]3)cc2)cc1`: the IC50 (in the data set with Leishmania infantum; in data set [1]; in the data set with Trypanosoma cruzi; in data set [3]; in data set [4]) was > 32 µM each time. This compound also showed an inhibition at 5 µM with Plasmodium falciparum [2] of 52%. The same compound registered an EC50 in the data set with Plasmodium falciparum [5] of 1.07 µM.
With `CC(Oc1ccc(NC(=O)c2cccs2)cc1)C(=O)c1ccc(Cl)cc1` (centres undefined), the IC50 was > 32 µM with Leishmania infantum; 15.5 µM in data set [1]; 15.4 µM in the data set with Trypanosoma cruzi; 10.3 µM in data set [3]; > 32 µM in data set [4]. The compound also displayed an inhibition at 5 µM in the data set on Plasmodium falciparum [2] of 87%. This compound yielded an EC50 in the data set on Plasmodium falciparum [5] of 1.03 µM.
With `COc1ccc(CNC(=O)c2cc3c(=O)n4ccccc4nc3n(CCc3ccccc3)c2=N)cc1`, the IC50 is 13.6 µM in the data set on Leishmania infantum; 11.9 µM in data set [1]; 4.91 µM in the data set on Trypanosoma cruzi; 3.15 µM in data set [3]; 14.7 µM in data set [4]. This compound also registered an inhibition at 5 µM with Plasmodium falciparum [2] of 95%. In the data set on Plasmodium falciparum [5], this compound displayed an EC50 of 1.06 µM.
For `CC(C)=CCN1CCC(C(=O)Nc2ccc(-c3nc4ccccc4[nH]3)cc2)CC1`, the IC50 was > 32 µM in the data set on Leishmania infantum; 5.04 µM in data set [1]; 23 µM in the data set on Trypanosoma cruzi; 2.34 µM in data set [3]; > 32 µM in data set [4]. The same compound showed an inhibition at 5 µM with Plasmodium falciparum [2] of 96%. The compound also registered an EC50 in the data set on Plasmodium falciparum [5] of 1.16 µM.
For the compound `FC(F)(F)c1cccc(CNC2CCN(CCc3ccccc3)CC2)c1`, the IC50 with Leishmania infantum was 16.6 µM; in data set [1], 2.73 µM; in the data set with Trypanosoma cruzi it was 15.7 µM; in data set [3] it was 1.31 µM; in data set [4], > 32 µM. Besides, the inhibition at 5 µM in the data set on Plasmodium falciparum [2] was 96%. In the data set on Plasmodium falciparum [5], this compound returned a half-maximal effective concentration (EC50) of 0.685 µM.
`O=C(Nc1cccc(-c2nc3ccccc3[nH]2)c1)c1cccc(NC(=O)c2ccco2)c1`: the IC50 (with Leishmania infantum; in data set [1]; with Trypanosoma cruzi; in data set [3]; in data set [4]) was > 32 µM throughout. In the data set on Plasmodium falciparum [2], this compound returned an inhibition at 5 µM of 95%. The same compound yielded an EC50 in the data set on Plasmodium falciparum [5] of 0.745 µM.
Consider `O=C(Nc1ccc(CN2CCOCC2)cc1)c1ccc(-c2ccc(Br)cc2)o1`, for which the IC50 was 18.4 µM in the data set on Leishmania infantum; 3.61 µM in data set [1]; 11 µM in the data set with Trypanosoma cruzi; 3.86 µM in data set [3]; 4.81 µM in data set [4]. For the same compound, testing at 5 µM in the data set with Plasmodium falciparum [2] gave an inhibition of 96%. This compound also gave an EC50 in the data set with Plasmodium falciparum [5] of 1.36 µM.
Consider `O=C(Cc1ccccc1)NC(c1ccc(Cl)cc1)c1c(O)ccc2ccccc12` (centres undefined), for which the IC50 with Leishmania infantum stood at 4.76 µM; in data set [1], 4.06 µM; in the data set on Trypanosoma cruzi, 3.65 µM; in data set [3] it was 3.7 µM; in data set [4] it was 8.22 µM. In the data set on Plasmodium falciparum [2], the inhibition at 5 µM is 97%. The concentration for a half-maximal effect (EC50) in the data set with Plasmodium falciparum [5] amounted to 1.14 µM.
For the compound `COc1ccc(C(=O)C2CC2c2ccc(Cl)cc2)cc1` (centres undefined), the IC50 (in the data set with Leishmania infantum; in data set [1]; with Trypanosoma cruzi; in data set [3]; in data set [4]) was > 32 µM each time. The compound also showed an inhibition at 5 µM with Plasmodium falciparum [2] of 94%. In the data set with Plasmodium falciparum [5], this compound returned an EC50 of 1.06 µM.
`O=C(NCC1Cc2cccc(-c3ccncc3)c2O1)c1csc2c1CCCC2` (centres undefined): the IC50 in the data set with Leishmania infantum is > 32 µM; in data set [1] it was 16.5 µM; in the data set on Trypanosoma cruzi, 5.16 µM; in data set [3], 13.9 µM; in data set [4], 28.5 µM. In addition, the inhibition at 5 µM in the data set on Plasmodium falciparum [2] is 87%. In addition, in the data set with Plasmodium falciparum [5], the EC50 was 1.72 µM.
